Biological target: eosinophils purified from human peripheral blood
Experiment: Eosinophil chemotaxis assay (eotaxin-induced)
Type: cell-based
Details: functional pKi; inhibition of human eosinophil chemotaxis to eotaxin (EC80 concentration)
Protocol: (b) Eosinophil Chemotaxis Assay.
Compounds were evaluated for their inhibitory effect on eosinophil chemotaxis. Eosinophils were purified from human peripheral blood by standard CD16 cell depletion using a Miltenyi cell separation column and a magnetic Super Macs magnet as previously described (Motegi & Kita, 1998; J. Immunology. 161:4340-6). Cells were re-suspended in RPMI 1640/10% FCS solution and incubated with calcein-AM (Molecular Probes) at 37° C. for 30 mins. Following incubation, the eosinophils were centrifuged at 400 g for 5 min and re-suspended in RPMI/FCS at 2.2 million/ml. Cells were then incubated in the presence of increasing concentration of compounds (1 pM to 30 μM) at 37° C. for 30 mins. For control responses cells were incubated with RPMI/FCS only. The agonist eotaxin (an EC80 concentration) was added to the lower chamber of a 96 well chemotaxis plate (5 μm filter: Receptor Technologies). Eosinophils (50 μl of 2 million/ml cells) were added to the top chamber of the filter plate and incubated at 37° C. for 45 mins. Cells remaining on top of the chemotaxis filter were removed and the number of eosinophils which had migrated were quantified by reading the plate on a fluorescent plate reader. Inhibition curves for the effect of compounds on eosinophil chemotaxis were analysed by fitting the data with a four parameter logistic equation. […]

| Structure (SMILES) | fpKi |
| --- | --- |
| O=C(NCc1nnn(CC2CC2)n1)NC[C@H]1CN(Cc2ccc(Cl)c(Cl)c2)CCO1 [Example 97, 1-(2-Cyclopropylmethyl-2H-tetrazol-5-ylmethyl)-3-[(2S)-4-(3,4-dichlorobenzyl)morpholin-2-ylmethyl]-urea] | 9.2 |
| CNC(=O)c1csc(CNC(=O)NC[C@H]2CN(Cc3ccc(Cl)c(Cl)c3)CCO2)c1 [Example 116, 5-{3-[(2S)-4-(3,4-Dichlorobenzyl)-morpholin-2-ylmethyl]-ureidomethyl}-thiophene-3-carboxylic acid methylamide] | 9.8 |

From patent US7622464B2, “Morpholinyl-urea derivatives for use in the treatment of inflammatory diseases” (Glaxo Group Limited, priority 2002, dated 2009)
